Data reported in patent publication US4238491A (priority 1977, dated 1980).
Read-outs that look alike come from different tables or passages of the source.

Legend:
blood pressure of SHR [1] = experiment: Antihypertensive effect by single oral administration, SHR, modified tail-cuff method; assay type: in vivo, rat (spontaneously hypertensive rats
From the text: The effect was examined through both direct and modified tail-cuff methods using male SHRs aged 25 to 30 weeks and weighing about 300 g.

[2] = system: blood pressure of anesthesized dogs; experiment: Effect on blood pressure of anesthesized dogs; assay type: in vivo, dog (mongrel); conditions: for average rate of blood pressure decrease: within 6 hours
Protocol: Changes in blood pressure were measured for 6 hours after the administration with a multi-purpose polygraph RM-85 made by NIHON KODEN.
The observed effect was a blood pressure decrease immediately after administration which came up nearly to plateau 2 hours after for 1 mg/kg, and 3 hours after for 3 mg/kg and 9 mg/kg, and in all cases remained on the plateau for 6 hours after that. The DB20 value obtained from the dose-response curve of FIG. 6 was 2 mg/kg.

blood pressure of SHR [3] = experiment: Antihypertensive effect by repeated administration, SHR; assay type: in vivo, rat (spontaneously hypertensive rats
Protocol: The effect was determined through a direct cannulation by using male SHRs aged 25 to 30 weeks and weighing about 300 g. […] Blood pressures were measured twice a day, just before and 4 hours after the administration with blood pressure recorder 8002 made by W+W Electronic.

[4] = system: spontaneous motor activity; experiment: Effect on spontaneous motor activity; assay type: in vivo, mouse (dd-strain); conditions: 25 mg/kg oral
Protocol: 25 mg/kg of MR were administered to the mice. After 15 minutes of letting them alone, spontaneous motor activity over 6 hours was measured hourly with an "Animex" made by AB Farad.

motorability = experiment: Effect on motorability (rotating bar); assay type: in vivo, mouse (dd-strain); conditions: 25 mg/kg oral; for Number of Animals that fell: 10 examined
Protocol: 25 mg/kg of MR were administered to 10 mice per one group. The mice were put on a wooden bar of 2 cm diameter which rotated at 10 r.p.m., and the number of mice which fell down from the bar was counted.

rats [5] = system: rats
Protocol: Urinanalysis was conducted on the last day of the repeated administration as to pH, protein content, glucose content, ketone body content and occult blood by testing paper methods. (Labstix, Miles-Sankyo Co., Ltd.)

rats [6] = system: rats; remark: listed apart in the source
From the text: Rats were sacrificed under anesthesia with ether. After observation of gross appearance of all the organs, extraction and weighing were made on spleen, lung, liver, adrenal, heart, thymus, kidney, testicles, hypophysis and thyroid. In addition to the above organs, femoral bone marrow, lymph node, stomach, intestine, pancreas, urinary bladder, prostate and central nervous system were removed and fixed in 10% formaline solution.

Solubility = assay type: physicochemical
[7] = 20 mg/kg oral
Protocol: Blood was drawn from branchial vein of dogs, vein of ear of rabbits and carotic artery of rats after slaughter. Urine was collected with urine bladder catheter for rabbits and metabolic cages for rats. Gathering bile was performed with biliary duct cannulation without anesthesia.

[8] = rat, in vivo, po
[9] = system: noradrenaline in heart and adrenals; conditions: in vivo; cited from earlier work
[10] = Excretion into urine after oral administration; conditions: rabbit, 10 mg/kg
From the text: Urine was collected with urine bladder catheter for rabbits and metabolic cages for rats.

COC(=O)[C@H]1[C@H]2C[C@@H]3c4[nH]c5cc(OC)ccc5c4CCN3C[C@H]2C[C@@H](O)[C@@H]1OC [MR, methylreserpate]
maximum rate of blood pressure decrease (blood pressure of SHR [1]; 6.25 mg/kg oral): 31.7%
time to reach original blood pressure level (blood pressure of SHR [1]; 6.25 mg/kg oral): 48 h
time to reach original blood pressure level (blood pressure of SHR [1]; 25 mg/kg oral): 72 h
maximum rate of blood pressure decrease (blood pressure of SHR [1]; 25.0 mg/kg oral): 42.5%
time from which blood pressure gradually returned (blood pressure of SHR [1]; after plateau, 6.25, 12.5 and 25 mg/kg oral): about 12 hours
time to plateau ([2]; 1 mg/kg intravenous): 2 h
time to plateau ([2]; 3 mg/kg intravenous): 3 h
average rate of blood pressure decrease ([2]; 3 mg/kg intravenous): 22.3%
time to plateau ([2]; 9 mg/kg intravenous): 3 h
average rate of blood pressure decrease ([2]; 9 mg/kg intravenous): 35.1%
duration of plateau ([2]; 1, 3 and 9 mg/kg intravenous): 6 h
ED (DB20) ([2]; Canis lupus familiaris, 6 h, intravenous, from dose-response curve of FIG. 6): 2 mg/kg
blood pressure 24 hours after administration (blood pressure of SHR [3]; oral, once a day over 2 weeks): had returned almost to the original level
disappearance of effect compared with RSP (blood pressure of SHR [3]; rat, in vivo): disappears more rapidly than that of RSP
tolerance (blood pressure of SHR [3]; repeated administration over 2 weeks): hardly giving tolerance
long lasting effect (blood pressure of SHR [3]; single and repeated administration to SHRs): no long lasting effect
average suppressive effect among four groups ([4]; P=0.05): no significant difference
effect on spontaneous motor activity ([4]; from 3 hours after): tended to supress spontaneous motor activity
Number of Animals that fell (motorability; 1 hour after): 0 Number of Animals
Number of Animals that fell (motorability; 2 hours after): 2 Number of Animals
effect on motorability (motorability; 3 hours after): slight suppression of motorability
Number of Animals that fell (motorability; 3 hours after): 4 Number of Animals
urine Glucose - (rats [5]; 25.0 mg/kg): 10 Number of Rats
urine Ketone Body + (rats [5]; 25.0 mg/kg): 0 Number of Rats
urine Ketone Body - (rats [5]; 25.0 mg/kg): 10 Number of Rats
urine Occult Blood - (rats [5]; 25.0 mg/kg): 10 Number of Rats
urine Protein + (rats [5]; 25.0 mg/kg): 6 Number of Rats
urine Protein ++ (rats [5]; 25.0 mg/kg): 4 Number of Rats
urine Protein +++ (rats [5]; 25.0 mg/kg): 0 Number of Rats
urine Protein - (rats [5]; 25.0 mg/kg): 0 Number of Rats
urine pH 6 (rats [5]; 25.0 mg/kg): 2 Number of Rats
urine pH 7 (rats [5]; 25.0 mg/kg): 7 Number of Rats
urine pH 8 (rats [5]; 25.0 mg/kg): 1 Number of Rats
urine Glucose - (rats [5]; 50.0 mg/kg): 10 Number of Rats
urine Ketone Body + (rats [5]; 50.0 mg/kg): 1 Number of Rats
urine Ketone Body - (rats [5]; 50.0 mg/kg): 9 Number of Rats
urine Occult Blood - (rats [5]; 50.0 mg/kg): 10 Number of Rats
urine Protein + (rats [5]; 50.0 mg/kg): 6 Number of Rats
urine Protein ++ (rats [5]; 50.0 mg/kg): 4 Number of Rats
urine Protein +++ (rats [5]; 50.0 mg/kg): 0 Number of Rats
urine Protein - (rats [5]; 50.0 mg/kg): 0 Number of Rats
urine pH 6 (rats [5]; 50.0 mg/kg): 1 Number of Rats
urine pH 7 (rats [5]; 50.0 mg/kg): 7 Number of Rats
urine pH 8 (rats [5]; 50.0 mg/kg): 2 Number of Rats
urine Glucose - (rats [5]; 100.0 mg/kg): 10 Number of Rats
urine Ketone Body + (rats [5]; 100.0 mg/kg): 1 Number of Rats
urine Ketone Body - (rats [5]; 100.0 mg/kg): 9 Number of Rats
urine Occult Blood - (rats [5]; 100.0 mg/kg): 10 Number of Rats
urine Protein + (rats [5]; 100.0 mg/kg): 3 Number of Rats
urine Protein ++ (rats [5]; 100.0 mg/kg): 3 Number of Rats
urine Protein +++ (rats [5]; 100.0 mg/kg): 3 Number of Rats
urine Protein - (rats [5]; 100.0 mg/kg): 1 Number of Rats
urine pH 6 (rats [5]; 100.0 mg/kg): 2 Number of Rats
urine pH 7 (rats [5]; 100.0 mg/kg): 7 Number of Rats
urine pH 8 (rats [5]; 100.0 mg/kg): 1 Number of Rats
increase in urine volume, interpretation (rats [5]; higher doses): seems to be a diuretic effect
urinanalysis overall (rats [5]; last day of repeated administration): do not indicate abnormal feature any worth special mention
urine Glucose - (rats [5]; rat, in vivo): 10 Number of Rats
urine Ketone Body + (rats [5]; rat, in vivo): 0 Number of Rats
urine Ketone Body - (rats [5]; rat, in vivo): 10 Number of Rats
urine Occult Blood - (rats [5]; rat, in vivo): 10 Number of Rats
urine Protein + (rats [5]; rat, in vivo): 5 Number of Rats
urine Protein ++ (rats [5]; rat, in vivo): 3 Number of Rats
urine Protein +++ (rats [5]; rat, in vivo): 2 Number of Rats
urine Protein - (rats [5]; rat, in vivo): 0 Number of Rats
urine pH 6 (rats [5]; rat, in vivo, pH 6): 3 Number of Rats
urine pH 7 (rats [5]; rat, in vivo, pH 7): 4 Number of Rats
urine pH 8 (rats [5]; rat, in vivo, pH 8): 3 Number of Rats
Absolute weight Brain (rats [6]; 25.0 mg/kg): 2.26 ± 0.04 g
Absolute weight Hypophysis (rats [6]; 25.0 mg/kg): 11.98 ± 0.44 mg
Absolute weight Kidney (rats [6]; 25.0 mg/kg): 1.20 ± 0.04 g
Absolute weight Liver (rats [6]; 25.0 mg/kg): 10.00 ± 0.47 g
Absolute weight Lung (rats [6]; 25.0 mg/kg): 2.35 ± 0.05 g
Absolute weight Spleen (rats [6]; 25.0 mg/kg): 0.71 ± 0.03 g
Absolute weight Thymus (rats [6]; 25.0 mg/kg): 0.54 ± 0.02 g
Absolute weight Thyroid (rats [6]; 25.0 mg/kg): 10.07 ± 0.55 mg
Absolute weight Salivary (rats [6]; 25.0 mg/kg, P<0.01): 0.26 ± 0.01 g
Absolute weight Brain (rats [6]; 50.0 mg/kg): 2.26 ± 0.03 g
Absolute weight Hypophysis (rats [6]; 50.0 mg/kg): 11.93 ± 0.48 mg
Absolute weight Kidney (rats [6]; 50.0 mg/kg): 1.19 ± 0.03 g
Absolute weight Liver (rats [6]; 50.0 mg/kg): 10.16 ± 0.33 g
Absolute weight Lung (rats [6]; 50.0 mg/kg): 2.26 ± 0.10 g
Absolute weight Spleen (rats [6]; 50.0 mg/kg): 0.73 ± 0.03 g
Absolute weight Thymus (rats [6]; 50.0 mg/kg): 0.58 ± 0.05 g
Absolute weight Thyroid (rats [6]; 50.0 mg/kg): 8.55 ± 0.50 mg
Absolute weight Salivary (rats [6]; 50.0 mg/kg, P<0.05): 0.26 ± 0.01 g
absolute weight of other organs (rats [6]; 100 mg/kg): decrease in weight of the other organs
Absolute weight Hypophysis (rats [6]; 100.0 mg/kg): 10.46 ± 0.17 mg
Absolute weight Spleen (rats [6]; 100.0 mg/kg): 0.56 ± 0.03 g
Absolute weight Thyroid (rats [6]; 100.0 mg/kg): 7.86 ± 0.38 mg
Absolute weight Kidney (rats [6]; 100.0 mg/kg, P<0.01): 0.89 ± 0.03 g
Absolute weight Salivary (rats [6]; 100.0 mg/kg, P<0.01): 0.21 ± 0.01 g
Absolute weight Thymus (rats [6]; 100.0 mg/kg, P<0.01): 0.39 ± 0.03 g
Absolute weight Brain (rats [6]; 100.0 mg/kg, P<0.05): 2.17 ± 0.04 g
Absolute weight Liver (rats [6]; 100.0 mg/kg, P<0.05): 7.55 ± 0.32 g
Absolute weight Lung (rats [6]; 100.0 mg/kg, P<0.05): 2.10 ± 0.06 g
absolute adrenal weight (rats [6]; 25 and 50 mg/kg groups): weight increase of adrenal
Absolute weight Brain (rats [6]; rat, in vivo): 2.28±0.03
Absolute weight Hypophysis (rats [6]; rat, in vivo): 10.60±0.41
Absolute weight Kidney (rats [6]; rat, in vivo): 1.17±0.05
Absolute weight Liver (rats [6]; rat, in vivo): 10.18±0.50
Absolute weight Lung (rats [6]; rat, in vivo): 1.32±0.12
Absolute weight Salivary (rats [6]; rat, in vivo): 0.27±0.01
Absolute weight Spleen (rats [6]; rat, in vivo): 0.69±0.03
Absolute weight Thymus (rats [6]; rat, in vivo): 0.63±0.04
Absolute weight Thyroid (rats [6]; rat, in vivo): 8.59±0.50
gross appearance of organs (rats [6]; rat, in vivo): no noteworthy change
solubility in chloroform (Solubility): easily soluble
solubility in ethanol (Solubility): easily soluble
solubility in methanol (Solubility): easily soluble
solubility in water (Solubility): hardly soluble
Area under the Curve of MR Content in Serum [7]: 63.6
metabolism [8]: hardly metabolized
noradrenaline in heart and adrenals [9]: slight decrease of noradrenaline in heart and adrenals
dose excreted at 48 h [10]: 10 to 15%
